Data on 35 compounds can be found in patent US20080312301A1, “Substituted N-Benzo[D]Isoxazol-3-Yl-Amine Compounds as Inhibitors of Mglur5, Serotonin (5-Ht) and Noradrenaline Receptors, and Uses Thereof” (Gruenenthal GmbH, priority 2005, published 2008).

Molecules are shown by their SMILES.

Experiment [1] has as its target T1, NA transporter (Rattus norvegicus, UniProt Q63380).
T1 construct: from tissue; host or cells: rat hypothalamus synaptosomes (P2 fraction)
As to the kind of experiment: Noradrenaline (NA) uptake inhibition in rat brain synaptosomes (hypothalamus), [3H]-NA. It is filed as biochemical. The note with it: for inhibition at 10 µM: conc. 10 μM. The source says:
(§1) I. Method for Determining the Noradrenaline and 5HT Uptake Inhibition:
(§2) For in vitro studies, synaptosomes were freshly isolated from rat brain areas as described in the publication “The isolation of nerve endings from brain” by E. G. Gray and V. P. Whittaker, J. Anatomy 96, pages 79-88, 1962. The corresponding literature description is introduced hereby as reference and forms part of the disclosure.
(§3) The tissue (hypothalamus for determining the noradrenaline uptake inhibition and medulla and pons for determining the 5HT uptake inhibition) was homogenized in ice-cold 0.32 M sucrose (100 mg of tissue/1 ml) in a glass homogenizer with Teflon pestle using five full up and down strokes at 840 revolutions/minute. The homogenate was centrifuged at 1000 g and at 4° C. for 10 minutes. After subsequent centrifugation at 17 000 g for 55 minutes, the synaptosomes (P2 fraction) are obtained and were resuspended in 0.32 M […] (0.5 ml/100 mg of the original weight).
(§4) The respective uptake was measured in a 96-well microtiter plate. The volume was 250 μl and incubation took place at room temperature (approx. 20-25° C.) under an O2 atmosphere.
(§5) The incubation time was 7.5 minutes for [^3H]-NA and 5 minutes for [^3H]-5-HT. The 96 samples were then filtered through a Unifilter GF/B® microtiter plate (Packard) and washed with […] of incubated buffer using a “Brabdel MPXRI-96T Cell Harvester”. The Unifilter GF/B plate was dried at 55° C. for 1 h. The plate was then sealed with a Back Seal® (Packard) and 35 μl of scintillation fluid were added per well (Ultima Gold®, Packard). After sealing with a top Seal® (Packard), the radioactivity was determined, after equilibrium had been reached (about 5 h), in a “Trilux 1450 Microbeta” (Wallac).
The following characteristic data were found for the NA transporter:
(§6) The amount of protein employed in the above determination corresponded to the value disclosed in the literature, as described for example in “Protein measurement with the folin phenol reagent”, Lowry et al., J. Biol. Chem., 193, 265-275, 1951. A detailed description of the method can also be found in the literature, for example from M. Ch. Frink, H.-H. Hennies, W. Engelberger, M. Haurand and B. Wilffert (1996) Arzneim.-Forsch./Drug Res. 46 (III), 11, 1029-1036. The corresponding literature descriptions are hereby introduced as reference and form part of the disclosure.

Experiment [2] addresses T2, mGluR5 receptor (Sus scrofa, UniProt I3LUI7).
T2 construct: 450 μg of protein from brain homogenate are incubated with 5 nM^3[H]-MPEP; from tissue; host or cells: pig brain hemispheres without medulla, cerebellum and pons
As to the kind of experiment: Affinity for the mGluR5 receptor: displacement of 3[H]-MPEP binding in pig brain homogenate. As to conditions: 10 μM compound, 5 nM 3[H]-MPEP. The protocol: II. Method for Determining the Affinity for the mGluR5 Receptor
In each case 450 μg of protein from brain homogenate are incubated with 5 nM^3[H]-MPEP (Tocris, order No. R1212) (MPEP=2-methyl-6-[…]) and the compounds to be investigated (10 μM in the assay) in buffer (as above) in 250 μl incubation mixtures in 96-well microtiter plates at room temperature for 60 min.
The filter plates were then dried at 55° C. for 60 min.

In experiment [3] the target is T3, 5-HT uptake (serotonin reuptake) (Rattus norvegicus, UniProt P31652).
T3 construct: from tissue; host or cells: rat medulla and pons synaptosomes (P2 fraction)
T3 sequence (P31652 whole entry): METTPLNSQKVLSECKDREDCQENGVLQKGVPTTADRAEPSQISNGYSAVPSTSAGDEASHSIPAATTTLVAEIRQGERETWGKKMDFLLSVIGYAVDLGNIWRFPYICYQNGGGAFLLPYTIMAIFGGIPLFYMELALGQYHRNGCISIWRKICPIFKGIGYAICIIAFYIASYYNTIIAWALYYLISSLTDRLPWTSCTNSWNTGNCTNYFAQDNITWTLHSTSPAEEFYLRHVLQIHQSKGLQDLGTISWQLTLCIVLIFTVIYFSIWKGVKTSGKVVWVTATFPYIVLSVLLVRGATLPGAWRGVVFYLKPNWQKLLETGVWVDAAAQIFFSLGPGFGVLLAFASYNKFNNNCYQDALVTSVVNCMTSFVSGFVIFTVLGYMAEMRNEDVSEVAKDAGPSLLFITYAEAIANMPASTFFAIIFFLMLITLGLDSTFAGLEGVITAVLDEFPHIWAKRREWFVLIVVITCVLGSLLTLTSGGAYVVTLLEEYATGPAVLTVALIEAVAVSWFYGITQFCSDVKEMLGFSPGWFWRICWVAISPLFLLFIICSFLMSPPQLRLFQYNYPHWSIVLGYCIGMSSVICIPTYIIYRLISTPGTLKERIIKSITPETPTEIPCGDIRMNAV
As to the kind of experiment: 5HT uptake inhibition in rat brain synaptosomes (medulla and pons), [3H]-5-HT. It is filed as biochemical. As to conditions: for inhibition at 10 µM: conc. 10 μM.
Text: as §1, §2, §3, §4, §5, §6

As usually defined, the inhibition is how much of the control response was suppressed.

T1 sequence (Q63380 1-617): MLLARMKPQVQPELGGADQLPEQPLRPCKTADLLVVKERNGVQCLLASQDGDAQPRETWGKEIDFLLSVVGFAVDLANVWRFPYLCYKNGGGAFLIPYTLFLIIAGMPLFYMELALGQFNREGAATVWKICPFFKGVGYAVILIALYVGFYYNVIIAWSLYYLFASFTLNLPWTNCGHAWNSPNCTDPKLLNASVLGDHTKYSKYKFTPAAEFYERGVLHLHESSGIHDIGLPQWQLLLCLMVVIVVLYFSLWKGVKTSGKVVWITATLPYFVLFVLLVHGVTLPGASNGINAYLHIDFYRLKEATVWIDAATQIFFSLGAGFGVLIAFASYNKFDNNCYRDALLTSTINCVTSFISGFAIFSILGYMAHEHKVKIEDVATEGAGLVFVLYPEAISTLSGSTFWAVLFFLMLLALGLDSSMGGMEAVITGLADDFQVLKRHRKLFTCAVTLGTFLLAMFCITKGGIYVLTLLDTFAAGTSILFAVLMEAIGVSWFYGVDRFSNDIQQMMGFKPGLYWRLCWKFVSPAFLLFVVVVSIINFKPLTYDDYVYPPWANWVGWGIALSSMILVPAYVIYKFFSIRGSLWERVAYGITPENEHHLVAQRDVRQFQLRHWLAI
T2 sequence (I3LUI7 19-1212): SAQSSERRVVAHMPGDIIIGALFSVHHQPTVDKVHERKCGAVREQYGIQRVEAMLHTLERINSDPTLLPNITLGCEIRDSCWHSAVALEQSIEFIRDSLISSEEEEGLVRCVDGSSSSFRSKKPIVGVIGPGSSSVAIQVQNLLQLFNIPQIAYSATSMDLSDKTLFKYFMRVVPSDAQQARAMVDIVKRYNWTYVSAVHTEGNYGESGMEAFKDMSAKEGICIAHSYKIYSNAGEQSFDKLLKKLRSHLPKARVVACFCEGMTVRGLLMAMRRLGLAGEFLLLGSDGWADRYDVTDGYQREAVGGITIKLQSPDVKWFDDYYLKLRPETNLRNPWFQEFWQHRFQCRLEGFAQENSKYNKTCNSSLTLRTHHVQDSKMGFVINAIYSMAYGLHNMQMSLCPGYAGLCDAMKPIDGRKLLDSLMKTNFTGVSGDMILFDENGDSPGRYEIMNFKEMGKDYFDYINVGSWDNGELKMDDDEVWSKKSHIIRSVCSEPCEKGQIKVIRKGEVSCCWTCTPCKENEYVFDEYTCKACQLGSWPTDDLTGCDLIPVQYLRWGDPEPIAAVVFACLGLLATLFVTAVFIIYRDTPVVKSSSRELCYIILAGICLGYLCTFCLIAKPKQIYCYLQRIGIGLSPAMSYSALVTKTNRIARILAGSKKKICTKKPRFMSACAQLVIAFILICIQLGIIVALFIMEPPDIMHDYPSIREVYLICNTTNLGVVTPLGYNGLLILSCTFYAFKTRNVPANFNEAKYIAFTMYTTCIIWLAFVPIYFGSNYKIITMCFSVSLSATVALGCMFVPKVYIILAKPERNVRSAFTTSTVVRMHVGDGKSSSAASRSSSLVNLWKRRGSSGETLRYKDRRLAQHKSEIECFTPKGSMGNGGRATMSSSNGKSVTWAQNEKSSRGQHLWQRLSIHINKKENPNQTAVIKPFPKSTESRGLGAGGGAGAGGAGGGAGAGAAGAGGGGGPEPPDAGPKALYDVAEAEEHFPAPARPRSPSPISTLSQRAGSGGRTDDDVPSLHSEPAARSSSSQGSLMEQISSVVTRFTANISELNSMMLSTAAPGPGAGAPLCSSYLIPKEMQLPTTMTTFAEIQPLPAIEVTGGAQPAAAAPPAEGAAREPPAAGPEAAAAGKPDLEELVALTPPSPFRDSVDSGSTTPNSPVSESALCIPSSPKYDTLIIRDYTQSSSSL

Consider `O=C(Nc1noc2cc(Br)ccc12)c1ccc(F)c(F)c1` [Example 49, N-(6-bromobenzo[d]isoxazol-3-yl)-3,4-difluorobenzamide], for which the inhibition at 10 µM stood at 65% in experiment [1] and 36.9% in experiment [2].
For the compound `CCC(C)C(=O)Nc1noc2cc(F)ccc12` (stereo not drawn) [Example 18, N-(6-fluorobenzo[d]isoxazol-3-yl)-2-methylbutyramide], in experiment [3], at 10 µM the inhibition was 70%.
In the case of `O=C(Nc1noc2cc(F)ccc12)c1cccs1` [Example 17, thiophene-2-(6-fluorobenzo[d]isoxazol-3-yl)carboxamide], the “5 HT uptake inhibition [%] conc. 10 μM” value in experiment [3] came to 77%.
Compound `O=C(Nc1noc2ccc(F)cc12)c1ccccc1C(F)(F)F` [Example 26, N-(5-fluorobenzo[d]isoxazol-3-yl)-2-trifluoromethylbenzamide] displayed an inhibition at 10 µM in experiment [3] of 82%.
For `O=C(Nc1noc2cc(Br)ccc12)C1C2CC3CC(C2)CC1C3` (stereo not drawn) [Example 24, adamantane-2-(6-bromobenzo[d]isoxazol-3-yl)carboxamide], the “5 HT uptake inhibition [%] conc. 10 μM” value in experiment [3] is reported as 79%.
In the case of `CN(C)c1cccc2onc(NC(=O)c3cc(C(F)(F)F)cc(C(F)(F)F)c3)c12` [Example 35, N-(4-dimethylaminobenzo[d]isoxazol-3-yl)-3,5-bistrifluoromethylbenzamide], 10 µM produced 86% inhibition in experiment [3].
Still for that read-out and setting: for `O=C(Nc1noc2ccccc12)c1ccccc1C(F)(F)F` [Example 13, N-benzo[d]isoxazol-3-yl-2-trifluoromethylbenzamide] the value was 84%; for `CC(C)(C)c1ccc(C(=O)Nc2noc3cccc(OCC(F)(F)F)c23)cc1` [Example 38, 4-tert-butyl-N-[4-(2,2,2-trifluoroethoxy)benzo[d]isoxazol-3-yl]benzamide], 77%; for `O=C(Nc1noc2ccc(Br)cc12)c1cc(C(F)(F)F)ccc1F` [Example 29, N-(5-bromobenzo[d]isoxazol-3-yl)-2-fluoro-5-trifluoromethylbenzamide], 83%.
The same measure, in the same setting: for `O=C(Nc1noc2ccccc12)c1cccc(F)c1F` [Example 15, N-benzo[d]isoxazol-3-yl-2,3-difluorobenzamide] the value was 86%.
In the case of `O=C(Nc1noc2cc(Br)ccc12)c1ccccc1C(F)(F)F` [Example 23, N-(6-bromobenzo[d]isoxazol-3-yl)-2-trifluoromethyl benzamide], the “5 HT uptake inhibition [%] conc. 10 μM” value in experiment [3] was 86%.
In experiment [3], `CCC(C)C(=O)Nc1noc2cc(Br)ccc12` (stereo not drawn) [Example 25, N-(6-bromobenzo[d]isoxazol-3-yl)-2-methylbutyramide] returned an inhibition at 10 µM of 86%.
As to `CC(C)(C)c1ccc(C(=O)Nc2noc3cc(Br)ccc23)cc1` [Example 21, N-(6-bromobenzo[d]isoxazol-3-yl)-4-tert-butylbenzamide], in experiment [3], the inhibition at 10 µM stood at 81%.
Still for that read-out and setting: the figure for `CN(C)c1cccc2onc(NC(=O)c3cccc(F)c3)c12` [Example 16, N-(4-dimethylaminobenzo[d]isoxazol-3-yl)-3-fluorobenzamide] is 72%.
As for `Cc1ccccc1C(=O)Nc1noc2ccc(F)cc12` [Example 28, N-(5-fluorobenzo[d]isoxazol-3-yl)-2-methylbenzamide], the figures for the inhibition at 10 µM in experiment [3] and in experiment [2] were 91% and 35%, respectively.
`O=C(Nc1noc2cccc(OCC(F)(F)F)c12)c1ccc(F)cc1C(F)(F)F` [Example 77, 4-fluoro-N-[4-(2,2,2-trifluoroethoxy)benzo[d]isoxazol-3-yl]-2-trifluoromethyl-benzamide]: the values for the inhibition at 10 µM in experiment [1] and in experiment [2] were 70% and 38%, respectively.
Take `Cc1ccc2onc(NC(=O)c3ccccc3C(F)(F)F)c2c1` [Example 31, N-(5-methylbenzo[d]isoxazol-3-yl)-2-trifluoromethylbenzamide]: 10 µM produced 69% inhibition in experiment [3].
Regarding `O=C(Nc1noc2cccc(OCC(F)(F)F)c12)c1cccc(Cl)c1` [Example 37, 3-chloro-N-[4-(2,2,2-trifluoroethoxy)benzo[d]isoxazol-3-yl]benzamide], the inhibition at 10 µM in experiment [3] came out at 90%.
As to `COc1cccc2onc(NC(=O)c3cc(C(F)(F)F)cc(C(F)(F)F)c3)c12` [Example 33, N-(4-methoxybenzo[d]isoxazol-3-yl)-3,5-bistrifluoromethyl benzamide], the “5 HT uptake inhibition [%] conc. 10 μM” value in experiment [3] is reported as 85%.
`O=C(Nc1noc2ccc(F)cc12)c1ccc(Cl)c(Cl)c1` [Example 27, 3,4-dichloro-N-(5-fluorobenzo[d]isoxazol-3-yl)benzamide]: the inhibition at 10 µM in experiment [3] was found to be 89%.
On the same count and under the same terms, for `COc1cccc2onc(NC(=O)c3cc(F)cc(F)c3)c12` [Example 34, 3,5-difluoro-N-(4-methoxybenzo[d]isoxazol-3-yl)benzamide] the value was 78%.
Take `O=C(Nc1noc2cccc(OCC(F)(F)F)c12)c1ccc(F)c(F)c1` [Example 82, 3,4-difluoro-N-[4-(2,2,2-trifluoroethoxy)benzo[d]isoxazol-3-yl]benzamide]: the inhibition at 10 µM in experiment [1] was 68%; in experiment [2], 42%.
For `O=C(Nc1noc2ccc(Br)cc12)c1ccc(F)cc1F` [Example 30, N-(5-bromobenzo[d]isoxazol-3-yl)-2,4-difluorobenzamide], the figures for the inhibition at 10 µM in experiment [3] and in experiment [2] were 79% and 45.2%, respectively.
With `Cc1ccc2onc(NC(=O)c3cccc(F)c3)c2c1` [Example 32, 3-fluoro-N-(5-methylbenzo[d]isoxazol-3-yl)benzamide], the values for the inhibition at 10 µM in experiment [3] and in experiment [2] were 89% and 40.1%, respectively.
Consider `COc1ccccc1C(=O)Nc1noc2cc(Br)ccc12` [Example 22, N-(6-bromobenzo[d]isoxazol-3-yl)-2-methoxybenzamide], for which 10 µM produced 79% inhibition in experiment [3].
With `CN(C)c1cccc2onc(NC(=O)C3CCCCC3)c12` [Example 73, cyclohexane-(4-dimethylaminobenzo[d]isoxazol-3-yl)carboxamide], the “NA uptake inhibition [%] conc. 10 μM” value in experiment [1] came to 70%. In addition, the “mGluR5 receptor inhibition of the 3[H]-MPEP binding in % (10 μM)” value in experiment [2] is recorded as 30.05%.
Regarding `O=C(Nc1noc2cc(Cl)ccc12)c1ccc2ccccc2c1` [Example 41, naphthalene-2-(6-chlorobenzo[d]isoxazol-3-yl)carboxamide], the “NA uptake inhibition [%] conc. 10 μM” value in experiment [1] was determined as 61%.
As for `O=C(Nc1noc2c(F)cccc12)c1ccc2ccccc2c1` [Example 57, naphthalene-2-(7-fluorobenzo[d]isoxazol-3-yl)carboxamide], the “NA uptake inhibition [%] conc. 10 μM” value in experiment [1] was determined as 67%.
In experiment [3], `O=C(Nc1noc2ccccc12)c1ccc(Cl)c(Cl)c1` [Example 14, N-benzo[d]isoxazol-3-yl-3,4-dichlorobenzamide] returned an inhibition at 10 µM of 69%.
In experiment [1], `O=C(Nc1noc2c(F)cccc12)c1ccc(F)c(F)c1F` [Example 54, 2,3,4-trifluoro-N-(7-fluorobenzo[d]isoxazol-3-yl)benzamide] displayed an inhibition at 10 µM of 63%.
Still for that read-out and setting: for `CCCc1ccc(C(=O)Nc2noc3cccc(N(C)C)c23)cc1` [Example 68, N-(4-dimethylaminobenzo[d]isoxazol-3-yl)-4-propylbenzamide] the value was 73%; for `O=C(Nc1noc2cc(F)ccc12)c1cc(Cl)cc(Cl)c1` [Example 9, 3,5-dichloro-N-(6-fluorobenzo[d]isoxazol-3-yl)benzamide], 67%.
The same measure, in the same setting: for `CN(C)c1cccc2onc(NC(=O)c3cc(F)c(Cl)cc3Cl)c12` [Example 64, 2,4-dichloro-N-(4-dimethylaminobenzo[d]isoxazol-3-yl)-5-fluorobenzamide] the value was 63%.
Regarding `COc1cccc(C(=O)Nc2noc3cc(Cl)ccc23)c1` [Example 20, N-(6-chlorobenzo[d]isoxazol-3-yl)-3-methoxybenzamide], the inhibition at 10 µM in experiment [3] stood at 77%.
As for `CN(C)c1cccc2onc(NC(=O)c3ccc(F)c(F)c3)c12` [Example 69, N-(4-dimethylaminobenzo[d]isoxazol-3-yl)-3,4-difluorobenzamide], at 10 µM the inhibition in experiment [1] was 67%.
